From patent US20250049888A1, “USE OF THE NEGR1 PROTEIN AND BIOLOGICALLY ACTIVE FRAGMENTS THEREOF IN THE THERAPEUTIC TREATMENT OF ALK-RELATED DISEASES” (FONDAZIONE TELETHON ETS (70%), priority 2021, published 2025)

Columns and labels:
ERK1/2 = ERK1/2 phosphorylation in N2a cells, western or dot blotting; type: cell-based, murine; conditions: 10 minutes; for ERK1/2 phosphorylation (phospho-ERK/ERK): synthetic peptides, 10 μM
Method: Protein level and relative phosphorylation was assessed by western blotting. Briefly, upon a wash in PBS, cells were solubilized in lysis buffer (150 mM NaCl, 50 mM HEPES, 0.5% NP40, 1% sodium-deoxycholate). After 1 hour under mild agitation, the lysate was clarified by centrifugation for 20 min at 16,000 g. All experimental procedures were performed at 4° C. Protein concentrations were evaluated via Bradford assay (Bio-Rad, USA). For Western blotting experiments, an equal amount of proteins was diluted with 0.25% 5× Laemmli buffer. The samples were separated on 10% SDS-PAGE gels which were transferred onto nitrocellulose membrane (Sigma-Aldrich) at 80 V for 120 min at 4° C. Primary antibodies were: Beta-actin (Santa Cruz Biotechnology, sc-47778), ALK (Santa Cruz Biotechnology, sc-398791), N-myc (Santa Cruz Biotechnology, sc-56729), Phospho-p44/42 MAPK (Erk1/2) (Thr202/Tyr204) (Cell Signaling Technology), p44/42 MAPK (Erk1/2) (137F5) Rabbit mAb (Cell Signaling Technology), Akt (pan) (11E7) Rabbit mAb (Cell Signaling Technology), Phospho-Akt (Ser473) (D9E) XP® Rabbit mAb (Cell Signaling Technology), S6 Ribosomal Protein (5G10) Rabbit mAb (Cell Signaling Technology). Antibodies were applied overnight in blocking buffer (20 mM Tris, pH 7.4, 150 mM NaCl, 0.1% Tween 20, and 5% nonfat dry milk). Proteins were detected using the ECL prime detection system (GE Healthcare). The ECL signals were acquired with the imaging ChemiDoc Touch system (Bio Rad Laboratory Italy, Segrate, Italy). The optical density of the specific bands was quantified with ImageLab software (Bio Rad).
ALK triggers a signaling cascade that involves ERK and AKT kinases phosphorylation.
Additionally, the N2a cells were treated with the following synthetic peptides: the synthetic version of PepA-1 (synPepA-1), a scramble peptide including the GDKISV sequence (scr-GDKISV, substituting the W, tryptophan, that can undergo oxidation, with I, Isoleucine), and a scramble peptide (10 μM, 10 minutes). […]

[1] = system: MCF7 (breast adenocarcinoma); experiment: Growth of human cancer-derived cell line, MTT assay; type: cell-based; conditions: 200 ng daily, vs GFP
Method: (§1) The 3-(4,5-dimethylthiazol-2-yl)-2,5-diphenyl tetrazolium bromide (MTT) assay was performed to evaluate culture vitality. N2a cells were cultured in a 96-well plate at a concentration of 5×10^3 cell/cm^2. Treatment condition is indicated in the result section. At the end of the treatment, the MTT solution was added to the cell medium at a final concentration of 0.25 mg/mL. The incubation lasted 30 minutes at 37° C. Next, the medium was removed and the formazan precipitates were collected in DMSO (200 μL). The absorbance was measured at 570 nm using a spectrophotometer (Varioskan LUX, Thermofisher) as a proxy for cell viability. Relative cell viability fold is expressed over the control condition.
(§2) Next, the capability of Negr1 and peptide PepA to halt the growth of human cancer-derived cell lines, namely U87 (glioblastoma), SK-Mel5 (melanoma), MCF7 (breast adenocarcinoma), A549 (adenocarcinoma alveolar basal epithelial cells), and SH-SY5Y (neuroblastoma) was tested. To this aim, each line was treated daily with 200 ng GFP, rNegr1, or PepA. At DIV5, cellular growth was evaluated by MTT assay. […] Such results are in good agreement with the expression of the receptor ALK, that has been experimentally detected in cancer cell lines of ectodermal origin (including small cell lung carcinoma, breast carcinoma, melanoma, neuroblastoma, and glioblastoma) (Dirks et al. 2002).

U87 (glioblastoma) = experiment: as above; type: cell-based; conditions: 200 ng daily, vs GFP
Method: as §1, §2

SH-SY5Y (neuroblastoma) = experiment: as above; type: cell-based; conditions: 200 ng daily, vs GFP
Method: as §1, §2

[2] = system: A549 (adenocarcinoma alveolar basal epithelial cells); experiment: as above; type: cell-based; conditions: 200 ng daily, vs GFP
Method: as §1, §2

SK-Mel5 (melanoma) = experiment: as above; type: cell-based; conditions: 200 ng daily, vs GFP
Method: as §1, §2

N2a cells [3] = experiment: N2a cell growth, MTT assay; type: cell-based, murine
Method: as §1
At the physiological level, Negr1 exists as a GPI-anchored membrane-bound protein and as a soluble protein released upon metalloprotease cleavage (Sanz et al. 2015; Pischedda and Piccoli 2015). Thus, the inventors studied whether ectopic treatment with soluble recombinant Negr1 (Negr1) might modulate cancer cell growth. […] At DIV5, cellular growth was evaluated by MTT assay.
To further narrow down the minimal biologically active sequence within PepA, the PepA structure was analysed in silico. […] At DIV5, cellular growth was evaluated by MTT assay.

N2a cells [4] = experiment: N2a proliferation, cell number at DIV5; type: cell-based, murine; conditions: 200 ng daily, vs GFP
Method: Next, 10,000 naive N2a cells were seeded and treated daily with 200 ng Negr1, PepA, PepB, PepC, or GFP. At DIV5, cell number was evaluated.

Substance: GDKWSV (minimum active sequence) [GDKWSV peptide]
- ERK1/2 phosphorylation (dot-blot) (ERK1/2; 30 nM): severe reduction of ERK1/2 phosphorylation

Substance: NRGDKISVSVSSSSGGRAWDWDIAKPGLAILTF (Scramble-GDKISV) [scr-GDKISV]
- ERK1/2 phosphorylation (phospho-ERK/ERK) (ERK1/2): reduced ERK1/2 phosphorylation

Substance: DGASKGAWLNRSSIIFAGVWGSKDDPRVSISTL (PepA-1-6aa scramble) [reference compound]
- ERK1/2 phosphorylation (phospho-ERK/ERK) (ERK1/2): did not alter ERK phosphorylation

Substance: Negr1: soluble recombinant full-length Negr1 protein, Strep-FLAG tagged, expressed and purified from HEK293 cells
- growth of MCF7 cells (MTT) at DIV5 [1]: significantly reduce the growth
- growth of U87 cells (MTT) at DIV5 (U87 (glioblastoma)): significantly reduce the growth
- growth of SH-SY5Y cells (MTT) at DIV5 (SH-SY5Y (neuroblastoma)): significantly reduce the growth
- growth of A549 cells (MTT) at DIV5 [2]: significantly reduce the growth
- growth of SK-Mel5 cells (MTT) at DIV5 (SK-Mel5 (melanoma)): significantly reduce the growth
- N2a growth (MTT) at DIV5 (N2a cells [3]; 200 ng daily, vs GFP): significantly reduced N2a growth
- N2A growth / cellular vitality (MTT) at DIV5 (N2a cells [3]; 3 μM daily, vs vehicle (Lorlatinib) or GFP (rNegr1, PepA-1)): impaired N2A growth to a similar extent
- N2a proliferation (cell number) at DIV5 (N2a cells [4]): significantly reduced N2a proliferation
